{"source": "patent US6984656B2", "about": "“Core modified porphyrins” (priority 2001, dated 2006)", "key": {"MCF-7 cells": {"tested_on": "MCF-7 cells", "test": "Photosensitizer uptake in cultured MCF-7 cells by fluorescence", "type": "cell-based", "conditions": "10 μM and 100 μM, 24 h", "experimental": "To establish baseline fluorescence, control cells incubated with MEM not containing either photosensitizer were used. […] A time course to determine when the fluorescence approached its maximum was performed for DH-82 and Photofrin®.\nTo determine the final intracellular concentrations of each sensitizer, cells in 96-well plates were incubated with sensitizer for 24 h. Detection of fluorescence in sensitizer-treated cells was made directly in the wells of the 96-well plate using the appropriate excitation and emission wavelengths.\nPhotosensitizer uptake experiments are conducted with fluorescent sensitizers. First, cells will be removed from 100-mm dishes by trypsinization (see above) and seeded on 96-well plates at 5×10^4 cells/well in 200 μL of MEM. […] To establish baseline fluorescence, control cells incubated with MEM not containing any photosensitizer are used. […] Fluorescence of the cells is determined using a Spectramax Gemini spectrofluorimeter (Molecular Devices, Sunnyvale, Calif.). Sensitizers will be compared according to the rate at which the fluorescence approached its maximum final emission per 10^5 cells as well as by the final sensitizer concentrations in cells. The fluorescence values calculated for 10^5 cells will be compared to a standard curve of fluorescence obtained from known concentrations of each sensitizer."}, "R3230AC cells": {"tested_on": "R3230AC cells", "test": "Viability of R3230AC cells in the dark and after light", "type": "cell-based, rat", "conditions": "10^−6 M; 24 h after 0.9 J cm^−2 of 590-750 nm light"}, "[1]": {"test": "Quantum yield for the generation of singlet oxygen", "type": "physicochemical", "conditions": "aqueous solution"}, "Colo-26 cells": {"tested_on": "Colo-26 cells", "test": "Dark and light-induced toxicity toward Colo-26 cells in culture", "type": "cell-based, murine", "method": "In order to compare relative phototoxicity, the core-modified porphyrins of Table 1 were evaluated in culture for dark and light-induced toxicities toward Colo-26 cells, a murine colon carcinoma cell line."}, "BALB/c mice": {"tested_on": "BALB/c mice", "test": "Preliminary toxicity, single intravenous injection in BALB/c mice"}}}
{"smiles": "O=C([O-])COc1ccc(-c2c3nc(c(-c4ccc(F)cc4)c4ccc(s4)c(-c4ccc(F)cc4)c4nc(c(-c5ccc(OCC(=O)[O-])cc5)c5ccc2s5)C=C4)C=C3)cc1.[Na+].[Na+]", "note": "[MA-99]", "values": [{"measurement": "final intracellular concentration relative to that for DH-82", "setting": "MCF-7 cells", "result": "approximately 80%"}, {"measurement": "reduction in cell number after light exposure", "setting": "R3230AC cells", "result": 40, "unit": "%"}, {"measurement": "quantum yield for the generation of singlet oxygen φ(^1O2)", "setting": "[1]", "result": "0.71 ± 0.02"}, {"measurement": "EC50", "setting": "Colo-26 cells; 4 J cm^−2 of 590-800 nm light, read-out: EC50 against Colo-26 cells", "result": 430, "unit": "nM"}, {"measurement": "phototoxicity relative to Photofrin® with laser excitation (FIG. 4a)", "setting": "Colo-26 cells; Colo-26 cells, 694 nm dye laser for DH-82 and MA-99, 630 nm dye laser for Photofrin®", "result": "significantly greater phototoxicity at lower concentrations than Photofrin®"}, {"measurement": "gross abnormalities in organs and tissues after sacrifice", "setting": "BALB/c mice; 10 mg/kg i.v., after 90 days", "result": "no gross abnormalities were noted"}, {"measurement": "toxicity and morbidity", "setting": "BALB/c mice; 10 mg/kg, followed 90 days post-injection, normal vivarium light", "result": "neither toxicity nor morbidity was observed"}]}
